The values that follow are results of earlier work, collected in patent US20260092327A1, “METHODS OF MONITORING MUTATIONS IN TREATMENT OF COLORECTAL CANCER” (Cardiff Oncology, Inc., priority 2022, published 2026).

The subject of data set [1] is advanced/metastatic solid tumors.
The target in data set [2] is PLK1 (Homo sapiens, UniProt P53350). To be noted: among a panel of 296 kinases, including other PLK members.
For data set [3], the system named is cell lines from solid and hematologic tumors. To be noted: large number of cell lines.
Data set [4] has as its system cancer cell lines.
For data set [5], the system named is xenograft tumor. The following applies: well tolerated doses in mice after oral administration.
Data set [6] relates to HT29 human colon adenocarcinoma xenografts. To be noted: compared to each agent alone.
Data set [7] has as its system disseminated model of AML.
The subject of data set [8] is HCT-116 KRAS-mutant CRC xenograft. To be noted: HCT-116 KRAS-mutant CRC xenograft model.
[9] abbreviates: adult subjects with advanced/metastatic solid tumors, single agent.

Each structure is given as a SMILES string.

PLK1, sequence (P53350 whole entry): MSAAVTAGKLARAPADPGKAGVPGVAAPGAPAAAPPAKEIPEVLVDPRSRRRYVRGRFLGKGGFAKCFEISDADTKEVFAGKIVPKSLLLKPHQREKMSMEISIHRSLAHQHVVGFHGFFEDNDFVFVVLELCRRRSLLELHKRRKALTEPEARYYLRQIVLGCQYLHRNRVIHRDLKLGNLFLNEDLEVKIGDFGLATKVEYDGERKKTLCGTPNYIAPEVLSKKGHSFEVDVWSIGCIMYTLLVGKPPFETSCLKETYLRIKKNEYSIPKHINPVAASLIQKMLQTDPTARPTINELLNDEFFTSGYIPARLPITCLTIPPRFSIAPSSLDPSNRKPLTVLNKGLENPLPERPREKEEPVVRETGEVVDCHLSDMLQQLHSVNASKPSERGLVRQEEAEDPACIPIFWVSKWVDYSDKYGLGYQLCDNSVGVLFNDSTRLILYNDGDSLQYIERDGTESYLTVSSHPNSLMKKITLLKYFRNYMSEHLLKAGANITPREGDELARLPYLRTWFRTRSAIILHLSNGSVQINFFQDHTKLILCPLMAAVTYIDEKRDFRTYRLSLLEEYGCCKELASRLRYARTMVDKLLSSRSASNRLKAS

On to `CN1CCN(c2ccc(OC(F)(F)F)c(Nc3ncc4c(n3)-c3c(c(C(N)=O)nn3CCO)CC4)c2)CC1` [Onvansertib, 1-(2-hydroxyethyl)-8-{[5-(4-methylpiperazin-1-yl)-2-(trifluoromethoxy)phenyl]amino}-4,5-dihydro-1H-pyrazolo[4,3-h]quinazoline-3-carboxamide], for which, in data set [1] (setting [9]), the “evaluable patients with stable disease” value is on record as 5 of 16 and the “recommended phase 2 dose” value was 24 mg/m^2. Further, in [1] (patients with advanced/metastatic solid tumors), the primary dose-limiting toxicities entry was “neutropenia and thrombocytopenia”. In addition, the “recovery of hematologic toxicities” value in data set [1] (toxicities reversible) is not above 3 weeks. Moreover, in [2], the “specificity for PLK1” value is given as “high specificity”. Also, the “potency in proliferation assays” value in [3] is listed as “low nanomolar activity”. The “effect on cell cycle” value in data set [4] is recorded as “mitotic cell-cycle arrest followed by apoptosis”. Also, the xenograft tumor growth entry in data set [5] is recorded as “inhibits xenograft tumor growth”. For the same compound, the “tumor regression in combination with irinotecan” value in data set [6] was “enhanced tumor regression”. Further, the “survival of animals in combination with cytarabine” value in [7] is reported as “prolonged survival”. Besides, in data set [8], the “anti-tumor activity as single agent” value was “potent anti-tumor activity”, the “combination effect with 5-FU” value is “synergy” and the “combination effect with irinotecan” value was “synergy”. Where the note is “in vivo”, the half-life result is “about 24 hours”. Further, where the note is “rodent and nonrodent species”, the oral bioavailability result is given as “good oral bioavailability”.
